Article PMC5908301, “Small molecule CXCR4 antagonists block the HIV-1 Nef/CXCR4 axis and selectively initiate the apoptotic program in breast cancer cells” (Oncotarget, 2018)
Entries after “also recorded” stand apart in the source; their conditions may differ. Like-named read-outs stand apart in the source and are kept apart here.

Columns and labels:
MDA-MB-231 cells [1] = assay: Mitochondrial depolarization of MDA-MB-231 breast cancer cells (JC-1 stain); settings: for EC50 / inhibition at 100 µM: Homo sapiens; for inhibition at 100 µM: MDA-MB-231, read-out: inhibition (effect) reached in MDA-MB-231 depolarization assay; for depolarization of MDA-MB-231 cells (qualitative): at concentrations below 10 μM; for depolarization/apoptosis of MDA-MB-231 cells (qualitative): up to 100 μM; for depolarization of MDA-MB-231 cells in dose response (qualitative): Figure 10
CXCR4 = target: T1, CXCR4 (Homo sapiens, UniProt P61073); assay: Inhibition of SDF-1α-mediated calcium flux in CXCR4-expressing CEM cells; assay type: cell-based; settings: for IC50: read-out: CEM SDF-1 Ca2+ Flux IC50
T1 construct: CXCR4-expressing CEM cells; endogenous in cells; host or cells: CEM cells
T1 sequence (P61073 whole entry): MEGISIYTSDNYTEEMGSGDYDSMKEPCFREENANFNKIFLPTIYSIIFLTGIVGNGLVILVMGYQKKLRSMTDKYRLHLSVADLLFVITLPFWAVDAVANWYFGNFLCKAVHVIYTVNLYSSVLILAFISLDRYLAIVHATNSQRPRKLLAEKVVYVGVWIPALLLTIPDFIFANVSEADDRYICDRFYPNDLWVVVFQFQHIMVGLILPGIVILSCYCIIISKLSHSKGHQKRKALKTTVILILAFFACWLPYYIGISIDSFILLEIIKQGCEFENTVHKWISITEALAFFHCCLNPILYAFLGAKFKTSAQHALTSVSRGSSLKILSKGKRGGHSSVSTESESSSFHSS
Protocol: CXCR4- expressing CEM cells were loaded with Fluo-4, washed, and pre- incubated with the indicated concentrations of test compounds for 10 min.

HIV-1IIIB = assay: MAGI antiviral (entry) assay with HIV-1IIIB in HeLa-derived MAGI-CCR5/CXCR4 cells; assay type: cell-based
Protocol: MAGI-CCR5/CXCR4 cells are derived from HeLa-CD4-LTR-β-gal cells. The cells have been engineered to express high levels of CD4 and CXCR4 and contain one copy of the HIV-1 LTR promoter driving expression of the β-galactosidase gene upon HIV-1 Tat transactivation. On the day preceding the assay, the cells are plated at 1 × 10^4 well and incubated at 37°C overnight. Total cell and viability quantification is performed using a hemacytometer and trypan blue exclusion.
The virus used for these tests is the CXCR4-tropic strain HIV-1IIIB. […] For each assay, a pre-titered aliquot of virus is removed from the freezer (−80°C) and allowed to thaw slowly to room temperature in a biological safety cabinet.
Compounds are evaluated at one or two concentrations (e.g., for initial screening) or in dose-response at six concentrations (triplicate wells/concentration). On the day of assay setup, compound dilutions are prepared at two-times (2×) the final required concentrations. Media used for plating the cells the day before assay setup is aspirated from the plates and replaced with 50 μL of the 2× compounds, followed by the addition of 50 μL of virus, which dilutes the compounds to the final 1X concentrations. Cell control wells (cells only) and virus control wells (cells plus virus) are included on each assay plate. Identical uninfected assay plates (virus replaced with media) are prepared for parallel cytotoxicity testing.
Once HIV-1 has attached and entered the MAGI-CXCR4 cells, HIV-1 Tat transactivates the LTR dependent β-galactosidase enzyme to express higher than normal levels of β-galactosidase. […] At 48 hours or 6 days post infection, plates are aspirated, and PBS is added to each well. Gal-screen reagent (Tropix, Bedford, MA) is then added per the manufacturer's instructions for chemiluminescent detection of β-galactosidase activity and incubated at room temperature for 90 minutes. The resulting chemiluminescence signal is then read using a Microbeta Trilux luminescence reader (PerkinElmer/Wallac).
Percent inhibition of virus replication and percent cell viability at each concentration are calculated using an in-house computer program. […] Raw data for both antiviral activity and cytotoxicity with analyzed/tabulated data are provided in a printout summarizing the individual compound activity. For dose-response testing, a graphical representation of the data is also provided.

[2] = test system: Jurkat T-lymphocyte cells; assay: Inhibition of Nef M1 peptide-induced mitochondrial depolarization/apoptosis in Jurkat cells (JC-1); assay type: cell-based, human; settings: for EC50: JC-1; for protection against M1 (control drugs): data not shown
Jurkat cells = assay: M1 peptide-induced apoptosis in Jurkat cultures (TUNEL); assay type: cell-based, human
Protocol: (A) Fluorescent microscopy images of Jurkat cultures stained via TUNEL. (B) TUNEL stained cells were counted and quantified. Fluorescent microscopy images were arranged with Adobe photoshop 6.0 software and analyzed by Image-Pro 6.3 software (Media Cybernetics, Silver Spring, MD).
(§1) Cells were grown to 80% confluence in 35 mm plates, either untreated or treated with 10 ng/ml of Nef Motif1 or CXCR4 antagonists for 24 hours. The cells were washed twice in ice-cold PBS and then fixed in 4% paraformaldehyde 1 hour. TUNEL assay for apoptosis and microscopy were done as described previously.

MDA-MB-231 cells [3] = settings: Figure 8B, TUNEL
Protocol: (D) MDA-MB-231 cells mock treated were analyzed via TUNEL.
as §1

[4] = MDA-MB-231, 24 h, read-out: MDA-MB-231 Depolarization EC50
[5] = MDA-MB-231, read-out: EC50 depolarization/apoptosis of MDA-MB-231 cells
[6] = Human immunodeficiency virus 1, MAGI-CCR5/CXCR4 cells, β-galactosidase reporter, read-out: HeLa HIV-1IIIB MAGI IC50
[7] = Homo sapiens, Jurkat, 24 h, concentration inhibiting M1-induced mitochondrial depolarization by 50%, 10 ng/mL M1, 24 h, read-out: Jurkat M1 Inhibition EC50
[8] = Homo sapiens, Jurkat, read-out: EC50 against M1-mediated apoptosis in Jurkat cells
[9] = Human immunodeficiency virus 1, MAGI, read-out: HIV-1IIIB MAGI IC50

Row | Molecule | EC50 (MDA-MB-231 cells [1]; [4]) [µM] | IC50 (HIV-1IIIB; [6]) [µM] | EC50 [2, 7] [µM] | IC50 (CXCR4) [µM] | other results
1 | c1ccc(Cc2cn[nH]c2C2CCN(Cc3ccncc3)CC2)cc1 [Compound 8] | 0.028 | 0.78 | 1.1 |  | EC50 (MDA-MB-231 cells [1]; [5]): < 0.1 µM; CXCR4 functional response in calcium flux assay (qualitative) (CXCR4): no measurable CXCR4 functional response
2 | NC(=O)NCCCCN(C[C@H]1Cc2ccccc2CN1)[C@H]1CCCc2cccnc21 [Compound 1] | 0.0008 |  | 0.0003 | 0.004 | IC50 (HIV-1IIIB; Human immunodeficiency virus 1, MAGI, read-out: HeLa HIV-1IIIB MAGI IC50): 0.21 µM
3 | TNAACAWLEAQ [Compound M1, pro-apoptotic peptide, residues 50–60 of HIV-1 Nef] |  |  |  |  | apoptosis induction in Jurkat cultures by peptide (Jurkat cells; 10 ng/mL, 24 h, no antagonist): displayed apoptosis
4 | c1ccc(CNCCCCN(C[C@H]2Cc3ccccc3CN2)[C@H]2CCCc3cccnc32)nc1 [Compound 2] |  |  |  |  | Apoptosis (%) (MDA-MB-231 cells [3]): 93%
5 | CC1(C)CN2C(CSC(=NC3CCCCC3)NC3CCCCC3)=CSC2=N1 [IT1t, reference compound] | 0.00625 | 0.01 |  |  | protection from M1-mediated apoptosis (Jurkat cells; prophylactic 50 nM, then M1): complete protection; EC50 [2, 8]: < 0.1 µM; EC50 ([2]; concentration inhibiting M1-induced mitochondrial depolarization by 50%, 10 ng/mL M1, 24 h, listed as It1t, read-out: Jurkat M1 Inhibition EC50): 0.0007 µM; EC50 ([2]; concentration inhibiting M1-induced mitochondrial depolarization by 50%, 10 ng/mL M1, 24 h, read-out: Jurkat M1 Inhibition EC50): ≤ 1 µM
6 | CN(C[C@@H]1CN(Cc2ccccc2)CCN1)[C@H]1CCCc2cccnc21 [Compound 6] | 10 | 0.85 |  | 3.3 | inhibition at 100 µM (MDA-MB-231 cells [1]): ≤ 65%; depolarization of MDA-MB-231 cells (qualitative) (MDA-MB-231 cells [1]): failed to depolarize; IC50 (HIV-1IIIB; [9]): < 0.1 µM; EC50 [2, 8]: 0.053 µM
7 | NCCCCN(C[C@H]1Cc2ccccc2CN1Cc1ccncn1)[C@H]1CCCc2cccnc21 [Compound 4] | > 100 | 0.003 |  | 7.7 | inhibition at 100 µM (MDA-MB-231 cells [1]): ~20%; depolarization of MDA-MB-231 cells (qualitative) (MDA-MB-231 cells [1]): failed to depolarize; depolarization/apoptosis of MDA-MB-231 cells (qualitative) (MDA-MB-231 cells [1]): no apoptosis; also recorded: failed to depolarize; depolarization/apoptosis of MDA-MB-231 cells (qualitative) (MDA-MB-231 cells [1]; listed as compound 4): no effect; IC50 (HIV-1IIIB; [9]): < 0.1 µM; EC50 [2, 8]: 0.052 µM
8 | NCCCN(C[C@@H]1CN(Cc2ccccc2)CCN1)[C@H]1CCCc2cccnc21 [Compound 5] | 0.00039 | 0.03 | 0.01 | 0.19 | 
9 | NCCCCN(C[C@H]1Cc2ccccc2CN1Cc1cnccn1)[C@H]1CCCc2cccnc21 [Compound 3] | 0.015 | 0.79 | 0.0035 | 0.11 | inhibition at 100 µM (MDA-MB-231 cells [1]): ≤ 65%
10 | Cc1cn([C@H]2C[C@H](N=[N+]=[N-])[C@@H](CO)O2)c(=O)[nH]c1=O [AZT, reference compound] |  |  |  |  | depolarization of MDA-MB-231 cells in dose response (qualitative) (MDA-MB-231 cells [1]): No depolarization; protection against M1 (control drugs) [2]: did not confer protection
11 | CN(C[C@@H]1CN(Cc2ccc(C(F)(F)F)cc2)CCN1)[C@H]1CCCc2cccnc21 [Compound 7] | 85 | 8.01 | 12.7 | > 50 | 
12 | Maraviroc [reference compound] |  |  |  |  | depolarization of MDA-MB-231 cells in dose response (qualitative) (MDA-MB-231 cells [1]): No depolarization; protection against M1 (control drugs) [2]: did not confer protection

Second part, led by results:

Row | EC50 (MDA-MB-231 cells [1]; [4]) [µM] | IC50 (HIV-1IIIB; [6]) [µM] | EC50 [2, 7] [µM] | IC50 (CXCR4) [µM] | Molecule | other results
13 | 0.123 | 0.002 |  |  | c1cc(CN2CCCNCCNCCCNCC2)ccc1CN1CCCNCCNCCCNCC1 [AMD3100, reference compound] | Depolarization (%) (MDA-MB-231 cells [1]; Figure 8A, JC-1 staining): 91%; depolarization of MDA-MB-231 cells in dose response (qualitative) (MDA-MB-231 cells [1]): significant depolarization; Apoptosis (%) (MDA-MB-231 cells [3]): 89.5%; IC50 (HIV-1IIIB; [9]): 0.002 to 0.005 µM; EC50 [2, 8]: 0.473 µM
14 | 0.081 | > 10 | 12 | > 10 | c1cnc(NCc2ccc(CNc3ncccn3)cc2)nc1 [MSX-122, reference compound] | EC50 (MDA-MB-231 cells [1]; [5]): < 0.1 µM; CXCR4 functional response in calcium flux assay (qualitative) (CXCR4): no measurable CXCR4 functional response
